Assay results as given in patent US11319298B2 (Merck Sharp & Dohme Corp., priority 2016, dated 2022).

Target: T1, human M4 muscarinic acetylcholine receptor (Homo sapiens, UniProt P08173)
T1 construct: expressed in transfected cells; host or cells: CHO-K1
T1 sequence (P08173 1-479): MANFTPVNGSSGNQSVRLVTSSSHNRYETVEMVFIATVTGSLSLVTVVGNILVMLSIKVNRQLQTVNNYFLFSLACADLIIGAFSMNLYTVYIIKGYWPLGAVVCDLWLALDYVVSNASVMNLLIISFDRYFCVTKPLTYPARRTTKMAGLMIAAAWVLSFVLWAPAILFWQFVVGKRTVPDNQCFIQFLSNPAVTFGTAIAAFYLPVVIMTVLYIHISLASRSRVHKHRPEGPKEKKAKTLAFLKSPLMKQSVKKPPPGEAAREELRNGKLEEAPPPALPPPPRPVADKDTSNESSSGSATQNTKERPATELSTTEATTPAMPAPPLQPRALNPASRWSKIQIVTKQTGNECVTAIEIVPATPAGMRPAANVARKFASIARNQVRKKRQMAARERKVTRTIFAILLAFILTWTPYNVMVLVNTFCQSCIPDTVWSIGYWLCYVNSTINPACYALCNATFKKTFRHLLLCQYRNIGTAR
Assay: human FLIPR-based M4 PAM assay, CHO-K1 cells stably transfected with human M4 receptor and chimeric G-protein Gαqi5
Type: cell-based
Details: inflection point (IP) of dose response curve; acetylcholine added at 20% of maximum response; CHO-K1 human M4/Gαqi5, FLIPR Tetra
In short: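 CHO-K1 cells were loaded with calcium dye at 37 °C for ~1 h. Fluorescence (ex 470–495/em 515–575 nm) was read for 4 min after test compound at increasing concentrations, then 3.5 min after acetylcholine at an EC20; sometimes a third addition at EC70 followed. The value is the inflection point of a 4-parameter logistic fit.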

| SMILES | EC50 [nM] |
| --- | --- |
| COc1ccc(OC2CCN(c3nc(CO)nc(Cl)c3C)CC2)cn1 [Example 68, (4-chloro-6-(4-((6-methoxypyridin-3-yl)oxy)piperidin-1-yl)-5-methylpyrimidin-2-yl)methanol] | 126 |
| Cc1c(Cl)nc(CO)nc1N1CCC(Oc2ccc3c(c2)C(=O)CO3)CC1 [Example 91, 5-((1-(6-chloro-2-(hydroxymethyl)-5-methylpyrimidin-4-yl)piperidin-4-yl)oxy)benzofuran-3(2H)-one] | 27 |
| COc1ccc(OC2CCN(c3nc(OC)nc(Cl)c3C)CC2)cn1 [Example 227, 4-Chloro-2-methoxy-6-(4-((6-methoxypyridin-3-yl)oxy)piperidin-1-yl)-5-methylpyrimidine] | 55 |
| COc1ccc(OC2CCN(c3nnc(C(=O)NC4CCCc5ccccc54)cc3C)CC2)cn1 (stereo not shown) [Example 200, 6-{4-[(6-methoxypyridin-3-yl)oxy]piperidin-1-yl}-5-methyl-N-(1,2,3,4-tetrahydronaphthalen-1-yl)pyridazine-3-carboxamide] | 218 |
| Cc1ncc(C)c(N2CCC(Oc3ccc(OCCO)nc3)CC2)n1 [Example 64, 2-((5-((1-(2,5-dimethylpyrimidin-4-yl)piperidin-4-yl)oxy)pyridin-2-yl)oxy)ethan-1-ol] | 99 |
| Cc1c(-c2ccoc2)ncnc1N1CCC(Oc2cccc(C#N)c2)CC1 [Example 249, 3-((1-(6-(furan-3-yl)-5-methylpyrimidin-4-yl)piperidin-4-yl)oxy)benzonitrile] | 925 |
| Cc1c(C#N)nc(CO)nc1N1CCC(Oc2ccc3c(c2)C(=O)OC3)CC1 [Example 260, 2-(hydroxymethyl)-5-methyl-6-(4-((3-oxo-1,3-dihydroisobenzofuran-5-yl)oxy)piperidin-1-yl)pyrimidine-4-carbonitrile] | 2560 |
| COc1ccc(OC2CCN(c3nnc(C(N)=O)cc3C)CC2)cn1 [Example 127, 6-{4-[(6-methoxypyridin-3-yl)oxy]piperidin-1-yl}-5-methylpyridazine-3-carboxamide] | 114 |
| Cc1cc(C(=O)NCc2ccncc2)nnc1N1CCC(Oc2ccc3c(c2)C(=O)N(C)C3)CC1 [Example 135, 5-methyl-6-{4-[(2-methyl-3-oxo-2,3-dihydro-1H-isoindol-5-yl)oxy]piperidin-1-yl}-N-(pyridin-4-ylmethyl)pyridazine-3-carboxamide] | 158 |
| COc1ccc(OC2CCN(c3nnc(C#N)cc3C)CC2)cn1 [Example 258, 6-(4-((6-Methoxypyridin-3-yl)oxy)piperidin-1-yl)-5-methylpyridazine-3-carbonitrile] | 73 |
| Cc1cncc(-c2ncnc(N3CCC(Oc4cccc(C#N)c4)CC3)c2C)c1 [Example 247, 3-((1-(5-methyl-6-(5-methylpyridin-3-yl)pyrimidin-4-yl)piperidin-4-yl)oxy)benzonitrile] | 1130 |
| Cc1cc(C(=O)NCc2ccncc2)nnc1N1CCC(OCC2CC2)CC1 [Example 152] | 259 |
| Cc1nc(Cl)c(C)c(N2CCC(Oc3ccc4c(cnn4C)c3)CC2)n1 [Example 56, 5-((1-(6-chloro-2,5-dimethypyrimidin-4-yl)piperidin-4-yl)oxy)-1-methyl-1H-indazole] | 60 |
| COc1ccc(OC2CCN(c3nc(C)nc(C)c3C)CC2)cn1 [Example 104, 4-(4-((6-methoxypyridin-3-yl)oxy)piperidin-1-yl)-2,5,6,-trimethylpyrimidine] | 91 |
| Cc1cc(C(=O)NCc2ccncc2)nnc1N1CCC(Oc2cccc(C#N)c2)CC1 [Example 106, 6-(4-(3-Cyanophenoxy)piperidin-1-yl)-5-methyl-N-(pyridin-4-ylmethyl)pyridazine-3-carboxamide] | 33 |
| COc1ccc(OC2CCN(c3nc(C)ncc3C)CC2)cn1 [Example 79, 4-(4-((6-methoxypyridin-3-yl)oxy)piperidin-1-yl)-2,5-dimethylpyrimidine] | 235 |
